Source: patent US4103011A, “Novel penicillin compounds and process for preparation thereof” (priority 1976, dated 1978)
Structures can show the parent of a compound that is named as a salt. Where two headings read alike, the source gives them in different places.

Assays:
in vivo = conditions: mouse
[1] = test system: Staphylococcus aureus No. 50774; experiment: In vivo efficacy against systemic infection; design: species or system male mice (ddY); conditions: NO.50774, in Mus musculus, 336 h, sc, twice, about 5 minutes and 6 hours after infection, read-out: ED50 (median effective dose)
Description: (§1) The contents in the vials (No. A and No. C) prepared in Example 17 were each dissolved in deionized water, and injections having various concentrations were prepared.
(§2) Compounds A, B, F, G, H and M were dissolved in deionized water. Compounds C, D, E and J were dissolved in an aqueous solution of sodium carbonate (pH 8-9) to prepare injections of various concentrations.
(§3) Each of the injections was administered to mice under the conditions described below, and the median effective doses (ED50) obtained are shown in Table II.
(§4) Mice: male mice (ddY) weighting about 20g
Staphylococcus aureus No. 50774;
Intravenous infection with 50 to 100
LD50 (about 5 × 10^8cells/mouse) of a
bacterial suspension in saline.
(§5) twice, about 5 minutes and 6 hours after
Staphylococcus aureus No. 50774 14 days
The numerals in the table show ED50 (mg/kg). ED50 values were
(§6) calculated in accordance with the Behrens-Kaerber method [Arch. Exp. Path

Escherichia coli P-5101 [2] = experiment: In vivo efficacy against systemic infection; design: species or system male mice (ddY); conditions: P5101, in Mus musculus, 168 h, twice, about 5 minutes and 6 hours after infection, read-out: ED50 (median effective dose)
Description: as §1
(§7) Compounds A, B, F, G, H and M were dissolved in deionized water.
as §4
(§8) Intraperitoneal infection with 50 to
(§9) of a bacterial suspension in tryptosoy
as §5, §6

[3] = test system: Pseudomonas aeruginosa No. 12; experiment: In vivo efficacy against systemic infection; design: species or system male mice (ddY); conditions: for ED50: NO.12, in Mus musculus
Description: as §1, §7, §4
Pseudomonas aeruginosa No. 12;
as §8, §9, §5
Pseudomonas aeruginosa No. 12
as §6

[4] = test system: Salmonella enteritidis No. 1891; experiment: In vitro antibacterial activity (MIC); format: cell-based; conditions: Salmonella enterica; Salmonella enteritidis No. 1891; read-out: minimum inhibitory concentration (MIC)
Text: (§10) In vitro antibacterial activity against 20 strains of bacteria
(§11) The numerals in the table show minimum inhibitory concentrations (MIC)

[5] = test system: Klebsiella pneumoniae No. 13; experiment: In vitro antibacterial activity (MIC); format: cell-based; conditions: Klebsiella pneumoniae No. 13; read-out: minimum inhibitory concentration (MIC)
Text: as §10, §11

[6] = test system: Streptococcus faecalis P-2473; experiment: In vitro antibacterial activity (MIC); format: cell-based; conditions: Enterococcus faecalis, P2473; Streptococcus faecalis P-2473; read-out: minimum inhibitory concentration (MIC)
Text: as §10, §11

Proteus rettgeri P-2503 = experiment: In vitro antibacterial activity (MIC); format: cell-based; conditions: Providencia rettgeri, P2503; Proteus rettgeri P-2503; read-out: minimum inhibitory concentration (MIC)
Text: as §10, §11

[7] = test system: Streptococcus pyogenes 65A; experiment: In vitro antibacterial activity (MIC); format: cell-based; conditions: Streptococcus pyogenes 65A; read-out: minimum inhibitory concentration (MIC)
Text: as §10, §11

[8] = test system: Pseudomonas aeruginosa No.12; experiment: In vitro antibacterial activity (MIC); format: cell-based; conditions: Pseudomonas aeruginosa, NO.12, read-out: minimum inhibitory concentration (MIC)
Text: as §10, §11

Shigella flexneri 2a = experiment: In vitro antibacterial activity (MIC); format: cell-based; conditions: read-out: minimum inhibitory concentration (MIC)
Text: as §10, §11

Proteus morganii Kono = experiment: In vitro antibacterial activity (MIC); format: cell-based; conditions: Morganella morganii; Proteus morganii Kono; read-out: minimum inhibitory concentration (MIC)
Text: as §10, §11

[9] = test system: Salmonella typhimurium S-9; experiment: In vitro antibacterial activity (MIC); format: cell-based; conditions: Salmonella enterica; Salmonella typhimurium S-9; read-out: minimum inhibitory concentration (MIC)
Text: as §10, §11

Proteus mirabilis P-2381 = experiment: In vitro antibacterial activity (MIC); format: cell-based; conditions: P2381; Proteus mirabilis P-2381; read-out: minimum inhibitory concentration (MIC)
Text: as §10, §11

[10] = test system: Corynebacterium pyogenes C-21; experiment: In vitro antibacterial activity (MIC); format: cell-based; conditions: Rhodococcus (subgen. Prescottella) equi, C21; Corynebacterium pyogenes C-21; read-out: minimum inhibitory concentration (MIC)
Text: as §10, §11

Escherichia coli P-5101 [11] = experiment: In vitro antibacterial activity (MIC); format: cell-based; conditions: P5101; Escherichia coli P-5101; read-out: minimum inhibitory concentration (MIC)
Text: as §10, §11

[12] = test system: Staphylococcus aureus 209P JC-1; experiment: In vitro antibacterial activity (MIC); format: cell-based; conditions: Staphylococcus aureus 209P JC-1; read-out: minimum inhibitory concentration (MIC)
Text: as §10, §11

[13] = test system: Escherichia coli NIHJ JC-2; experiment: In vitro antibacterial activity (MIC); format: cell-based; conditions: Escherichia coli, NIHJJC2, read-out: minimum inhibitory concentration (MIC)
Text: as §10, §11

[14] = test system: Staphylococcus aureus No. 50774; experiment: In vitro antibacterial activity (MIC); format: cell-based; conditions: Staphylococcus aureus No. 50774; read-out: minimum inhibitory concentration (MIC)
Text: as §10, §11

Escherichia coli P-140a = experiment: In vitro antibacterial activity (MIC); format: cell-based
Text: as §10, §11

[15] = test system: Enterobacter cloacae P-2540; experiment: In vitro antibacterial activity (MIC); format: cell-based; conditions: P2540; Enterobacter cloacae P-2540; read-out: minimum inhibitory concentration (MIC)
Text: as §10, §11

[16] = test system: Pseudomonas aeruginosa Tsuchijima; experiment: In vitro antibacterial activity (MIC); format: cell-based; conditions: Pseudomonas aeruginosa Tsuchijima; read-out: minimum inhibitory concentration (MIC)
Text: as §10, §11

[17] = test system: Shigella flexneri 4a P-330; experiment: In vitro antibacterial activity (MIC); format: cell-based; conditions: 4AP330, read-out: minimum inhibitory concentration (MIC)
Text: as §10, §11

[18] = test system: Serratia mercescens IFO 3736; experiment: In vitro antibacterial activity (MIC); format: cell-based; conditions: IFO3736; Serratia mercescens IFO 3736; read-out: minimum inhibitory concentration (MIC)
Text: as §10, §11

[19] = test system: bacteria (systemic infection); experiment: In vivo efficacy against systemic infection, overall conclusions; design: species or system male mice (ddY); conditions: Table II
Description: as §1, §2, §3

Q: Which LD50 at 168 h (in vivo; iv) does the source give for `CC(=O)N1CCN(c2ncc3c(=O)c(C(=O)N[C@@H](C(=O)N[C@@H]4C(=O)N5[C@@H]4SC(C)(C)[C@@H]5C(=O)O)c4ccc(O)cc4)c[nH]c3n2)CC1` [Compound 2, D-α-[5,8-Dihydro-2-(4-acetyl-1-piperazinyl)-5-oxopyrido[2,3-d]pyrimidine-6-carboxamido]-p-hydroxybenzylpenicillin sodium salt] here?
A: 4520 mg/kg

Q: And the selectivity ratio (in vivo; iv)?
A: 753

Q: What about the LD50 at 168 h (in vivo; sc) of the same compound?
A: > 6000 mg/kg

Q: And the selectivity ratio (in vivo; sc)?
A: > 1200

Q: What about the ED50 [1] of the same compound?
A: 3.3 mg/kg

Q: And the “chemotherapeutic index relative to compounds B, D, E, F, G and J (times as high)” value (mice; Pseudomonas aeruginosa)?
A: 3 to 100 times

Q: What about the “LD50 relative to compounds A to G (times as high)” value (mice; mice) of the same compound?
A: 2 to 10 times

Q: And the ED50 (Escherichia coli P-5101 [2]; iv)?
A: 3.9 mg/kg

Q: What about the ED50 (Escherichia coli P-5101 [2]; sc) of the same compound?
A: 4.6 mg/kg

Q: What about the ED50 ([3]; iv, twice, about 5 minutes and 6 hours after infection, read-out: ED50 (median effective dose)) of the same compound?
A: 6 mg/kg

Q: What about the ED50 ([3]; parenteral administration, compounds 1 and 2 together, read-out: ED50) of the same compound?
A: 2 to 6 mg/kg

Q: What about the ED50 ([3]; sc, twice, about 5 minutes and 6 hours after infection, read-out: ED50 (median effective dose)) of the same compound?
A: 5 mg/kg

Q: And the “antibacterial activity compared with compounds J and H (in words)” value ([3]; parenteral administration)?
A: far superior antibacterial activity

Q: What about the “antibacterial activity relative to compounds B and C (times as high)” value ([3]; parenteral administration) of the same compound?
A: 3 to 25 times

Q: And the “antibacterial activity relative to compounds D and E (times as high)” value ([3]; parenteral administration)?
A: 6 to 20 times

Q: And the MIC [4]?
A: 0.78 µg/mL

Q: And the MIC [5]?
A: 12.5 µg/mL

Q: What about the MIC [6] of the same compound?
A: 6.25 µg/mL

Q: What about the MIC (Proteus rettgeri P-2503) of the same compound?
A: 25 µg/mL

Q: And the MIC [7]?
A: 0.006 µg/mL

Q: And the MIC [8]?
A: 3.13 µg/mL

Q: And the MIC (Shigella flexneri 2a)?
A: 3.13 µg/mL

Q: And the MIC (Proteus morganii Kono)?
A: 6.25 µg/mL

Q: What about the MIC [9] of the same compound?
A: 0.78 µg/mL

Q: What about the MIC (Proteus mirabilis P-2381) of the same compound?
A: 6.25 µg/mL

Q: What about the MIC [10] of the same compound?
A: 0.78 µg/mL

Q: What about the MIC (Escherichia coli P-5101 [11]) of the same compound?
A: 0.78 µg/mL

Q: And the MIC [12]?
A: 1.56 µg/mL

Q: And the MIC [13]?
A: 3.13 µg/mL

Q: What about the MIC [14] of the same compound?
A: 1.56 µg/mL

Q: What about the “minimum inhibitory concentration (MIC)” value (Escherichia coli P-140a) of the same compound?
A: 12.5 µg/mL

Q: What about the MIC [15] of the same compound?
A: 6.25 µg/mL

Q: What about the MIC [16] of the same compound?
A: 0.78 µg/mL

Q: And the MIC [17]?
A: 3.13 µg/mL

Q: What about the MIC [18] of the same compound?
A: 6.25 µg/mL

Q: And the “antibacterial activity in vivo (in words)” value [19]?
A: excellent antibacterial activity in vivo
